Laboratory results from PMC9603770, “Broad-Spectrum Inhibitors against Class A, B, and C Type β-Lactamases to Block the Hydrolysis against Antibiotics: Kinetics and Structural Characterization” (Microbiology Spectrum, 2022).

What was measured:
[1] = system: β-lactamase-producing clones; experiment: MIC fold reduction of meropenem in combination with inhibitor (discussion summary); format: cell-based, Escherichia coli
Excerpt: The combination of D2573 with cephalosporins (cefotaxime plus D2573 and cefoxitin plus D2573) or the combination of D2148 with cephalosporins (cefotaxime plus D2148 and cefoxitin plus D2148) or the combination of D63 with cephalosporins (cefotaxime plus D63 and cefoxitin plus D63) had […] MICs than the control. […] The MIC and MBC data are in harmony with in silico data which concluded that three potential inhibitors, D2573, D2148, and D63, are potential candidates against broad-spectrum β-lactamase-producing bacterial strains.
The MICs of various antibiotics in combination with selected inhibitors were determined on DH5α cells and clinical strains (AK-10, AK-12,AK-18, NP-6, AK-67, AK-66) using the microdilution method; Clinical and Laboratory Standards Institute (CLSI) guidelines were used to interpret the results ([37], [38]). In a series of 2-fold dilutions, E. coli cells were given escalating doses of antibiotics from 0 to 512 μg/mL.

MTT cytotoxicity assay = format: cell-based; conditions: mouse, NIH 3T3 cells, 50 μg/mL, read-out: cellular viability
Method: (§1) Cytotoxicity of lead molecules D2573, D2148, and D63 on NIH 3T3 cells was evaluated by MTT assay. The relative cellular viability of NIH 3T3 cells in the presence of each sample D2573, D2148, and D63 at different concentrations (12.5 μg/mL, 25 μg/mL, and 50 μg/mL) is shown in Fig. 6.
(§2) A cytotoxicity experiment was performed on NIH 3T3 cells. The NIH 3T3 cells were grown at 37°C in Dulbecco’s modified Eagle’s medium (DMEM) supplemented with 10% fetal bovine serum (FBS) and 1% antibiotic, penicillin-streptomycin (pen-strep), in a humidified incubator with 5% CO2. Sterile conditions were maintained at all times. Cells (~10^5 cells/well) were seeded in 96-well plates and allowed to adhere overnight. The cells were subsequently given different quantities of the lead compounds D2573, D2148, and D63 (12.5 μg/mL, 25 μg/mL, and 50 μg/mL, respectively). A conventional 3-(4,5-dimethylthiazol-2-yl)-2,5-diphenyl tetrazolium bromide (MTT) test was used to measure cell survival after 24 h. The supernatants were removed, and each well was filled with 90 μL of new medium and 10 μL of MTT (1 mg/mL) solution, which was then incubated for 4 h at 37°C. The formazan crystals generated during the reduction of MTT were dissolved in 150 μL of dimethyl sulfoxide (DMSO), and the absorbance was measured by measuring the optical density using a spectrophotometer at a wavelength of 570 nm.

NIH 3T3 cells = experiment: MTT cytotoxicity assay; format: cell-based; conditions: 24 h; for cellular viability: 50 μg/mL; for cytotoxicity (result in words): up to 50 μg/mL
Method: as §1, §2

SHV-1 = target: T1, SHV-1 (Klebsiella pneumoniae, UniProt P0AD64); experiment: Fluorescence quenching; format: binding; conditions: 298 K
T1 construct: made in house; host or cells: E. coli (DH5 and BL21(DE3) named; pET-28a)
T1 sequence (P0AD64 22-286): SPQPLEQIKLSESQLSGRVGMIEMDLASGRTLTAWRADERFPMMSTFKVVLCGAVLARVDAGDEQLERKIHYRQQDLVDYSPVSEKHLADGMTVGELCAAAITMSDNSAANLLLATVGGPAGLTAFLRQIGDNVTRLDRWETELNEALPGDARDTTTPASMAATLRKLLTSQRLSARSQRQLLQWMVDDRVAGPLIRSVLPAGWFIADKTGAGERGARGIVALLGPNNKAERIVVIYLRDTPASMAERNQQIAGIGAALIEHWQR
Method: (§3) Fluorescence quenching can be either dynamic or static in nature. The fluorescence intensity was calculated to understand the mechanism of protein quenching from all three classes of β-lactamase with D63, D2148, and D2573. The KSV (Stern–Volmer quenching constant; [Q] is the concentration of inhibitor) of all protein-inhibitor complexes was calculated from the slope of plot Fo/F (fluorescence intensities in the absence and presence of quencher) versus [Q], whereas number of binding sites (n) and Kb values for all combinations of proteins and inhibitors were determined by the slope and intercept of plot log (Fo/F – 1) versus log[Q] (Table 9).
(§4) A Shimadzu RF-5301PC spectrofluorometer (Shimadzu Corporation, Kyoto, Japan) was used to measure the fluorescence spectra. Quenching was observed by measuring intrinsic fluorescence at 295 nm between 300 and 400 nm. The emission and excitation slits were both adjusted to 5 nm. Then, 2 μM each D2573, D2148, and D63 were added to a 3-mL sample containing 2 μM protein ([…]). All the fluorescence intensities were corrected for the inner filter effect. The determination of the number of binding sites (n) and binding constant (Kb) at 298 K temperature for all the protein-inhibitor combinations from the Stern-Volmer equation and modified Stern-Volmer equation (equations 4 and 5). (4) (F0)/F = 1 + Ksv[Q] (5) Log (F0 − F)/F= logKb + n log[Q]
(§5) Fo and F are the fluorescence intensities in the absence and presence of quencher (D63, D2148, D2573).

TEM-1 = target: T2, TEM-1 (Escherichia coli, UniProt P62593); experiment: Fluorescence quenching; format: binding; conditions: 298 K
T2 construct: made in house; host or cells: E. coli (DH5 and BL21(DE3) named; pET-28a)
T2 sequence (P62593 24-286 limits assumed): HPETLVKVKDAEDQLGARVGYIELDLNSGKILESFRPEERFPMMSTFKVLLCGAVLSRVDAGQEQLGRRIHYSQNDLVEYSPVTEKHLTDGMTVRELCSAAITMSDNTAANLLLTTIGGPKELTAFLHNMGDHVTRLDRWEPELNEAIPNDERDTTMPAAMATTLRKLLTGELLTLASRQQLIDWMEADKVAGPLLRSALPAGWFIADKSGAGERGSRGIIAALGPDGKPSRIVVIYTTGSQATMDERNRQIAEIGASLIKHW
Method: as §3, §4, §5

KPC-2 = target: T3, KPC-2 (Klebsiella pneumoniae, UniProt Q9F663); experiment: Fluorescence quenching; format: binding; conditions: 298 K
T3 construct: made in house; host or cells: E. coli (DH5 and BL21(DE3) named; pET-28a)
T3 sequence (Q9F663 25-293, looked up, species assumed): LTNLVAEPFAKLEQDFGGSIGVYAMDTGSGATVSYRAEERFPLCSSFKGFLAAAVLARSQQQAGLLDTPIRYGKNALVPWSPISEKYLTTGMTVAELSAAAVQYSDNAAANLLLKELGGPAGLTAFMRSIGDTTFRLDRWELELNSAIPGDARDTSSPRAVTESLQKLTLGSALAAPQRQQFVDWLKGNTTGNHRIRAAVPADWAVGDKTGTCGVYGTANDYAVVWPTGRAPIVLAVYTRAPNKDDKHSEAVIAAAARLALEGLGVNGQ
Method: as §3, §4, §5

NDM-1 = target: T4, NDM-1 (Klebsiella pneumoniae, UniProt C7C422); experiment: Fluorescence quenching; format: binding; conditions: 298 K
T4 construct: made in house; host or cells: E. coli (DH5 and BL21(DE3) named)
T4 sequence (C7C422 29-270, looked up, species assumed): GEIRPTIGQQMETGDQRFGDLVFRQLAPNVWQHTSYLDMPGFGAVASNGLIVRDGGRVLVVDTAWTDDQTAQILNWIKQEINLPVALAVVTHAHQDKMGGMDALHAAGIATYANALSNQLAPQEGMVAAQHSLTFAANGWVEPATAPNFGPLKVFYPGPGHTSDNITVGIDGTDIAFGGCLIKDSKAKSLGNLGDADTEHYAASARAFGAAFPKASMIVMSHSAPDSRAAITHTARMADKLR
Method: as §3, §4, §5

CTX-M-15 = target: T5, CTX-M-15 (Escherichia coli, UniProt Q9EXV5); experiment: Fluorescence quenching; format: binding; conditions: 298 K
T5 construct: made in house; host or cells: E. coli (DH5 and BL21(DE3) named)
T5 sequence (Q9EXV5 29-291, species assumed): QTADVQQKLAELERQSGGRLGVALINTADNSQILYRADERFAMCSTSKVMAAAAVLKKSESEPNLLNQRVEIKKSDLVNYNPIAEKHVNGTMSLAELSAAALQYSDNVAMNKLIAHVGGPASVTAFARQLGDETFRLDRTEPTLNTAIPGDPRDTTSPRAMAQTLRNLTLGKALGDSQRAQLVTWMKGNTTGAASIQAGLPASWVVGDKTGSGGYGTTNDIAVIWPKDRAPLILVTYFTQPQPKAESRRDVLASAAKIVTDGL
Method: as §3, §4, §5

Amp-C = target: T6, Amp-C (Escherichia coli, UniProt P00811); experiment: Fluorescence quenching; format: binding; conditions: 298 K
T6 construct: made in house; host or cells: E. coli (DH5 and BL21(DE3) named; pET-28a)
T6 sequence (P00811 20-377): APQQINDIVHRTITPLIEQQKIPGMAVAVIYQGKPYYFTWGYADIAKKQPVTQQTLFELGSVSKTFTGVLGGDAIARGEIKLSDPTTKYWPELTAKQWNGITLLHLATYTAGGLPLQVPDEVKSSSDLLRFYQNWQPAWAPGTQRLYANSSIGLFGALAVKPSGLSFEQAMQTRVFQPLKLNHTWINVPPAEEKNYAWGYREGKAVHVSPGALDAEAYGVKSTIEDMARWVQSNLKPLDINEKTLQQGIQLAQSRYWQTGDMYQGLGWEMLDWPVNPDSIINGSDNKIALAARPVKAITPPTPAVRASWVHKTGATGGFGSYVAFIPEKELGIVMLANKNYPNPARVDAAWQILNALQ
Method: as §3, with “9). In this study, the KSV values were obtained, on the order of 10^2 to 10^5, for all enzyme-inhibitor complexes.” for “9).”
as §4, §5

SMILES	Reduction of MIC of meropenem in combination with inhibitor ([1]; class A β-lactamases)	Reduction of MIC of meropenem in combination with inhibitor ([1]; class B and C β-lactamases)	viability at 24 h, 50 μg/mL (MTT cytotoxicity assay)	cellular viability (NIH 3T3 cells)	cytotoxicity (result in words) (NIH 3T3 cells)	n (number of binding sites) (SHV-1)	n (number of binding sites) (TEM-1)	n (number of binding sites) (KPC-2)	n (number of binding sites) (NDM-1)	n (number of binding sites) (CTX-M-15)	n (number of binding sites) (Amp-C)	Reduction of MIC of meropenem in combination with inhibitor ([1]; all selected β-lactamase enzymes)
O=C(CN1C(=O)c2ccccc2S1(=O)=O)c1ccc(O)c(O)c1 [D63, 2-[2-(3,4-dihydroxyphenyl)-2-oxoethyl]-1H-1,2-benzisothiazole-1,1,3(2H)-trione]	2 fold	4 fold	~78%	> 75%	nontoxic	0.4791	0.4298	0.33	1.6673	1.9313	0.8493	–
O=C(c1ccccc1)C1CCN(C(=O)CN2C(=O)c3ccccc3C2=O)CC1 [D2148, 2-[2-(4-benzoylpiperidino) -2-oxoethyl]-1H-isoindole-1,3(2H)-dione]	2 fold	4 fold	~78%	> 75%	nontoxic	0.2952	0.2489	1.148	2.457	1.163	1.2792	–
O=C(O)c1ccccc1C(=O)N1CCN(c2nc(-c3ccccc3)ns2)CC1 [D2573, 2-{[4-(3-phenyl-1,2,4-thiadiazol-5-yl)piperazino]carbonyl}benzoic acid]	–	–	82%	> 75%	nontoxic	0.7621	0.750	1.1315	0.1842	0.9674	0.7042	2 fold
